Laboratory results reported in patent publication US20070117743A1, “New antitumoral compounds” (priority 2003, published 2007).

Legend:
Type in all cases: cell-based, human
IGROV-1 = assay: SRB colorimetric assay of cell growth and viability, IGROV-1; settings: 48 hours exposure, SRB
A-549 = assay: SRB colorimetric assay of cell growth and viability, A-549; settings: A-549, 48 hours exposure
DU-145 = assay: SRB colorimetric assay of cell growth and viability, DU-145; settings: 48 hours exposure, SRB
LNCaP = assay: SRB colorimetric assay of cell growth and viability, LNCaP; settings: 48 hours exposure, SRB
Description: The finality of this assay is to interrupt the growth of a “in vitro” tumor cell culture by means a continued exhibition of the cells to the sample to be testing.
This form of the assay employs 96 well cell culture microplates of 9 mm diameter (Faircloth, 1988; Mosmann, 1983). Most of the cell lines are obtained from American Type Culture Collection (ATCC) derived from different human cancer types.
Cells are maintained in RPMI 1640 10% FBS, supplemented with 0.1 g/l penicillin and 0.1 g/l streptomycin sulfate and then incubated at 37° C., 5% CO2 and 98% humidity. For the experiments, cells were harvested from subconfluent cultures using trypsin and resuspended in fresh medium before plating.
Cells are seeded in 96 well microtiter plates, at 5×10^3 cells per well in aliquots of 195 μL medium, and they are allowed to attach to the plate surface by growing in drug free medium for 18 hours. Afterward, samples are added in aliquots of 5 μL in a ranging from 10 to 10^−8 μg/mL, dissolved in DMSO:EtOH:PBS (0.5:0.5:99). After 48 hours exposure, the antitumor effect are measured by the SRB methodology: cells are fixed by adding 50 μL of cold 50% (wt/vol) trichloroacetic acid (TCA) and incubating for 60 minutes at 4° C. Plates are washed with deionized water and dried. One hundred μL of SRB solution (0.4% wt/vol in 1% acetic acid) is added to each microtiter well and incubated for 10 minutes at room temperature. Unbound SRB is removed by washing with 1% acetic acid. Plates are air dried and bound stain is solubilized with Tris buffer. Optical densities are read on a automated spectrophotometric plate reader at a single wavelength of 490 nm.
The values for mean+/− SD of data from triplicate wells are calculated. Some parameters for cellular responses can be calculated: GI=growth inhibition, TGI=total growth inhibition (cytostatic effect) and LC=cell killing (cytotoxic effect).

LoVo = assay: SRB colorimetric assay of cell growth and viability, LoVo; settings: LOVO, 48 hours exposure
IGROV-ET = assay: SRB colorimetric assay of cell growth and viability, IGROV-ET; settings: 48 hours exposure, SRB
HT-29 = assay: SRB colorimetric assay of cell growth and viability, HT-29; settings: HT-29, 48 hours exposure
SK-MEL-28 = assay: SRB colorimetric assay of cell growth and viability, SK-MEL-28; settings: 48 hours exposure, SRB
HeLa-APL = assay: SRB colorimetric assay of cell growth and viability, HeLa-APL; settings: HELA-APL, 48 hours exposure
LoVo-Dox = assay: SRB colorimetric assay of cell growth and viability, LoVo-Dox; settings: LOVO-DOX, 48 hours exposure
In short: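 Here, cells grow drug-free for 18 h, then receive sample dilutions from 10 down to 10^−8 μg/mL for 48 h at 37° C. Protein-bound SRB is solubilized in Tris and quantified at 490 nm.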

HeLa = assay: SRB colorimetric assay of cell growth and viability, HeLa; settings: HELA, 48 hours exposure
K-562 = assay: SRB colorimetric assay of cell growth and viability, K-562; settings: K-562, 48 hours exposure
PANC-1 = assay: SRB colorimetric assay of cell growth and viability, PANC-1; settings: PANC-1, 48 hours exposure

Q: For `C/C=C1\NC(=O)[C@H](Cc2ccccc2)NC(=O)[C@@H](C(C)C)NC(=O)[C@@H]([C@@H](C)CC)NC(=O)[C@H](NC(=O)[C@H](NC(=O)[C@H](CCCN)NC(=O)[C@H]2CCCCN2C(=O)[C@H](NC(=O)[C@@H](NC(=O)[C@@H](NC(=O)[C@H](NC(=O)CC[C@@H](C)CC)C(C)C)[C@@H](C)O)C(C)C)C(C)C)[C@@H](C)CC)[C@@H](C)OC(=O)[C@H](C(C)C)NC1=O` [Compound 60, [D-Pip^9, (4S)-MeHex^14]-KF], which GI50 (IGROV-1) is on record?
A: 1.24 µM

Q: What about the LC50 (concentration causing 50% net cell killing) (IGROV-1) of the same molecule?
A: 6.28 µM

Q: What about the “TGI IGROV” value (IGROV-1) of the same molecule?
A: 2.79E−06 Molar

Q: What about the “TGI A-549” value (A-549) of the same molecule?
A: 3.66E−06 Molar

Q: What about the GI50 (A-549; read-out: GI50 A-549) of the same molecule?
A: 1.61 µM

Q: And the CC50 (A-549; read-out: LC50 A-549)?
A: 6.7 µM

Q: What about the GI50 (DU-145) of the same molecule?
A: 1.64 µM

Q: And the LC50 (concentration causing 50% net cell kill) (DU-145)?
A: 6.16 µM

Q: What about the “TGI DU-145” value (DU-145) of the same molecule?
A: 3.17E−06 Molar

Q: What about the “TGI LN-caP” value (LNCaP) of the same molecule?
A: 2.59E−06 Molar

Q: And the GI50 (LNCaP; read-out: GI50 LN-caP)?
A: 1.23 µM

Q: And the CC50 (LNCaP; read-out: LC50 LN-caP)?
A: 5.43 µM

Q: And the GI50 (LoVo)?
A: 1.03 µM

Q: And the “TGI LOVO” value (LoVo)?
A: 2.44E−06 Molar

Q: And the CC50 (LoVo; read-out: LC50 LOVO)?
A: 5.77 µM

Q: What about the GI50 (IGROV-ET) of the same molecule?
A: 1.21 µM

Q: What about the “TGI IGROV-ET” value (IGROV-ET) of the same molecule?
A: 2.68E−06 Molar

Q: And the CC50 (IGROV-ET; read-out: LC50 IGROV-ET)?
A: 5.95 µM

Q: And the “TGI HT-29” value (HT-29)?
A: 2.16E−06 Molar

Q: What about the GI50 (HT-29; read-out: GI50 HT-29) of the same molecule?
A: 1.04 µM

Q: And the CC50 (HT-29; read-out: LC50 HT-29)?
A: 4.47 µM

Q: And the GI50 (SK-MEL-28)?
A: 1.66 µM

Q: What about the “TGI MEL-28” value (SK-MEL-28) of the same molecule?
A: 3.07E−06 Molar

Q: What about the CC50 (SK-MEL-28; read-out: LC50 MEL-28) of the same molecule?
A: 5.68 µM

Q: What about the GI50 (HeLa-APL) of the same molecule?
A: 2.05 µM

Q: And the “TGI HELA-APL” value (HeLa-APL)?
A: 4.42E−06 Molar

Q: And the CC50 (HeLa-APL; read-out: LC50 HELA-APL)?
A: 6.7 µM

Q: What about the GI50 (LoVo-Dox) of the same molecule?
A: 0.624 µM

Q: And the “TGI LOVO-DOX” value (LoVo-Dox)?
A: 1.98E−06 Molar

Q: What about the CC50 (LoVo-Dox; read-out: LC50 LOVO-DOX) of the same molecule?
A: 6.14 µM

Q: And the GI50 (HeLa)?
A: 3.15 µM

Q: What about the “TGI HELA” value (HeLa) of the same molecule?
A: 6.70E−06 Molar

Q: And the CC50 (HeLa; read-out: LC50 HELA)?
A: 6.7 µM

Q: What about the GI50 (K-562) of the same molecule?
A: 5.3 µM

Q: What about the “TGI K-562” value (K-562) of the same molecule?
A: 6.70E−06 Molar

Q: What about the CC50 (K-562; read-out: LC50 K-562) of the same molecule?
A: 6.7 µM

Q: And the GI50 (PANC-1)?
A: 6.7 µM

Q: And the “TGI PANC-1” value (PANC-1)?
A: 6.70E−06 Molar

Q: What about the CC50 (PANC-1; read-out: LC50 PANC-1) of the same molecule?
A: 6.7 µM

Q: Which “TGI IGROV” value (IGROV-1) does the source give for `C/C=C1\NC(=O)[C@H](Cc2ccccc2)NC(=O)[C@@H](C(C)C)NC(=O)[C@@H]([C@@H](C)CC)NC(=O)[C@H](NC(=O)[C@H](NC(=O)[C@H](CCCN)NC(=O)[C@@H]2CC[C@H](c3ccccc3)N2C(=O)[C@H](NC(=O)[C@@H](NC(=O)[C@@H](NC(=O)[C@H](NC(=O)CC[C@@H](C)CC)C(C)C)[C@@H](C)O)C(C)C)C(C)C)[C@@H](C)CC)[C@@H](C)OC(=O)[C@H](C(C)C)NC1=O` [Compound 62, [(5R)-Ph-Pro^9, (4S)-MeHex^14]-KF] here?
A: 6.43E−06 Molar

Q: What about the “TGI A-549” value (A-549) of the same molecule?
A: 6.43E−06 Molar

Q: And the “TGI DU-145” value (DU-145)?
A: 6.43E−06 Molar

Q: What about the “TGI LN-caP” value (LNCaP) of the same molecule?
A: 6.43E−06 Molar

Q: And the “TGI LOVO” value (LoVo)?
A: 6.43E−06 Molar

Q: What about the “TGI IGROV-ET” value (IGROV-ET) of the same molecule?
A: 6.43E−06 Molar

Q: And the “TGI HT-29” value (HT-29)?
A: 6.43E−06 Molar

Q: What about the “TGI MEL-28” value (SK-MEL-28) of the same molecule?
A: 6.43E−06 Molar

Q: And the “TGI HELA-APL” value (HeLa-APL)?
A: 6.43E−06 Molar

Q: What about the “TGI LOVO-DOX” value (LoVo-Dox) of the same molecule?
A: 6.43E−06 Molar

Q: What about the “TGI HELA” value (HeLa) of the same molecule?
A: 6.43E−06 Molar

Q: What about the “TGI K-562” value (K-562) of the same molecule?
A: 6.43E−06 Molar

Q: And the “TGI PANC-1” value (PANC-1)?
A: 6.43E−06 Molar
